Measurements: US20090130064A1, “DIFFERENTIATION OF STEM CELLS AND STABILIZATION OF PHENOTYPICAL PROPERTIES OF PRIMARY CELLS” (priority 2004, published 2009)

Experiments:
GSTM = GSTM iso-enzyme activity in cultured rat hepatocytes; format: cell-based; details: TSA started at 4 h; day 4 and 7
Excerpt: (§1) Hepatocytes were isolated from male Sprague-Dawley rats by a two-step collagenase perfusion as described (De Smet et al. In ‘Methods in Molecular Biology, Vol. 107: Cytochrome P450 Protocols’, Philips IR and Shephard E A, eds., p.p 295-301, Humana Press, Totowa, 1998). Hepatocytes were cultivated in monolayer cultures with Willam's E Medium (WE) for 7 days. […] The maintenance of differentiation characteristics was studied after 2, 4, and 7 days (D2, D4, D7) of culture.
In order to investigate Phase II biotransformation, total cytosolic glutathione S-transferase (GST) activity and activities of individual GSTA, GSTP, and GSTM iso-enzymes were measured using standard techniques known in the art. (i.e., measuring conjugation of reduced glutathione with 1-chloro-2,4-dinitrobenzene for total GST; measuring conjugation of reduced glutathione with 7-chloro-4-nitrobenzo-2-oxa-1,3-diazole for GSTA activity; measuring conjugation of reduced glutathione with ethacrynic acid for GSTP activity; and measuring conjugation of reduced glutathione with 1,2-dichloro-4-nitrobenzene for GSTM activity).

C/EBPalpha = assay: Western blotting of C/EBPalpha in primary hepatocytes; format: cell-based, rat; details: 1 μM TSA added at 0h or 4 h; day 4 and 7
Excerpt: as §1
Western blotting was performed using standard techniques known in the art. Proteins (25 μg) were resolved on a 10% SDS-PAGE and blotted onto nitrocellulose membrane. The membranes were incubated with appropriate concentrations of primary and secondary antibodies. Proteins were detected using appropriate dilutions of primary and secondary antibodies. Detection was done using the ECL detection system (Amersham Pharmacia Biotech, UK) according to manufacturer's recommendations.

CC(C=CC(=O)NO)=CC(C)C(=O)c1ccc(N(C)C)cc1 (centres unmarked) [TSA]
activity of GSTM iso-enzyme (GSTM): stimulated
expression of C/EBPalpha (C/EBPalpha): increase expression
